A word on the EC50: it is the concentration that produces a half-maximal response. Usually Ki stands for a measure of affinity in units of concentration, obtained from inhibition or displacement. The AC50 is the midpoint of the concentration-response curve, whichever way the signal moves.

The text below walks through data of ChEMBL document CHEMBL1201862, “PubChem BioAssay data set” (2004).

Test [1] concerns the target Sphingosine 1-phosphate receptor 2 (Homo sapiens, UniProt O95136). The test is described as follows: Late-stage fluorescence-based dose-response cell-based counterscreen assay to identify agonists of the Sphingosine 1-Phosphate Receptor 3 (S1P3): Sphingosine 1-Phosphate Receptor 2 (S1P2) agonist assay. Format: functional. (Counterscreens check selectivity or assay interference.)

Test [2] addresses T1, Sphingosine 1-phosphate receptor 4 (Homo sapiens, UniProt O95977).
T1 sequence (O95977 whole entry): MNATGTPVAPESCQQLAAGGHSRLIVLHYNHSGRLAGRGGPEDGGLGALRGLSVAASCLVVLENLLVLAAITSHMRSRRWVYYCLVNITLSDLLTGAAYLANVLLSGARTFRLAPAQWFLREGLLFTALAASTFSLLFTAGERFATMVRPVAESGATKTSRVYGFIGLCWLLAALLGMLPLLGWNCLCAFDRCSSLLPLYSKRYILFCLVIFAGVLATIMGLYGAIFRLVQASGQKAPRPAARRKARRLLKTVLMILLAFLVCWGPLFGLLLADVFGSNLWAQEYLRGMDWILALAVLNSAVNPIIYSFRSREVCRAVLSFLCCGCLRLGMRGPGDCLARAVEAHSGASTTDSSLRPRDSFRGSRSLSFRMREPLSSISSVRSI
The test is described as follows: Late-stage fluorescence-based dose-response cell-based counterscreen assay to identify agonists of the Sphingosine 1-Phosphate Receptor 3 (S1P3): Sphingosine 1-Phosphate Receptor 4 (S1P4) agonist assay. Format: functional.

Test [3] deals with T2, RNA-binding protein pos-1 (Caenorhabditis elegans, UniProt G5EF15).
T2 sequence (G5EF15 whole entry): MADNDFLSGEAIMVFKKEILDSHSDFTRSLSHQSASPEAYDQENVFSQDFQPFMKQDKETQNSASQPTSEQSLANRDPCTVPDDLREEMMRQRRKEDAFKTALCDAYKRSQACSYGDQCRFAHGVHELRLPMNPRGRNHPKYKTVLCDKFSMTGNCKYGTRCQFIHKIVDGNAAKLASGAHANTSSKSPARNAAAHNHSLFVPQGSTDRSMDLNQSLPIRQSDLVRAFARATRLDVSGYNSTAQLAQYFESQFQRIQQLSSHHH
The test is described as follows: inhibitors of POS-1/mex-3 RNA binding, dose response, biochemical, fluorescence polarization (AID 1964).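 Also: purified POS-1 fused to maltose binding protein made in E. coli; potency of compounds blocking POS-1 binding to fluorescent RNA.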 In general terms: Polarisation of emitted light reports the rotation of a fluorescent probe.

The target of test [4] is T3, Zinc finger protein mex-5 (Caenorhabditis elegans, UniProt Q9XUB2).
T3 sequence (Q9XUB2 whole entry): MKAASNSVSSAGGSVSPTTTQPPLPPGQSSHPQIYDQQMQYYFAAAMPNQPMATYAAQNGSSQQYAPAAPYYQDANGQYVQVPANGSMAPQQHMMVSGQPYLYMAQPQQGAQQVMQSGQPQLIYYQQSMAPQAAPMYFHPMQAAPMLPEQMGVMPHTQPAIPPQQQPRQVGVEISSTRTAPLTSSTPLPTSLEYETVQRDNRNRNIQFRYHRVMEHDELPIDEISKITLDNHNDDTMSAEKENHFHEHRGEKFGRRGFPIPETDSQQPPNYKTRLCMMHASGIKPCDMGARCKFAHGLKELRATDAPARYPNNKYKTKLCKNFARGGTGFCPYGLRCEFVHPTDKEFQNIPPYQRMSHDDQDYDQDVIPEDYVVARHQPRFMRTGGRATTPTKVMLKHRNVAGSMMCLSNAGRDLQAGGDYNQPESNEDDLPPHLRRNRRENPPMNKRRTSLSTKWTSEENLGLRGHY
The test is described as follows: MEX-5/TCR-2 RNA interaction inhibitors, dose response, biochemical, C. elegans, fluorescence polarization (AID 1960).

For the next test, the system named is CHO-K1. The test is described as follows: Counterscreen for antagonists of the orexin 1 receptor (OX1R; HCRTR1): Homogeneous time resolved fluorescence (HTRF)-based cell-based dose response assay to identify antagonists of the parental CHO-K1 cell line. [Related pubchem assays (depositor defined):AID434989, AID435008, AID463079, AID485270, AID492963, AID492964, AID492965, AID493232, AID504699, AID504701]. It is filed as functional. As to conditions: Cricetulus griseus.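 Also: potency for inhibition of ATP-stimulated IP1 production as antagonists.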

Test [5] in a line: Counterscreen for antagonists of the orexin 1 receptor (OX1R; HCRTR1): Fluorescence-based cell-based high throughput dose response assay to identify antagonists of the parental CHO cell line. [Related pubchem assays (depositor defined):AID434989, AID435008, AID463079, AID485270, AID492963, AID492964, AID492965, AID493232, AID504699, AID504701]. It is filed as functional.
Test [6] addresses T4, Orexin/Hypocretin receptor type 1 (Homo sapiens, UniProt O43613). The test is described as follows: Homogeneous Time Resolved Fluorescence (HTRF)-based cell-based high throughput dose response assay for antagonists of the orexin 1 receptor (OX1R; HCRTR1). [Related pubchem assays (depositor defined):AID434989, AID435008, AID463079, AID485270, AID492963, AID492964, AID492965, AID493232, AID504717, AID504718]. Format: functional. (In general: TR-FRET usually uses a lanthanide donor and a delayed reading to cut background.)

The target of test [7] is T4, Orexin/Hypocretin receptor type 1. The test is described as follows: Fluorescence-based cell-based high throughput dose response assay for antagonists of the orexin 1 receptor (OX1R; HCRTR1). [Related pubchem assays (depositor defined):AID434989, AID435008, AID463079, AID485270, AID492963, AID492964, AID492965, AID493232, AID504717, AID504718]. Format: functional.
For test [8], the target named is T5, Polyadenylate-binding protein 1 (Homo sapiens, UniProt P11940). The test is described as follows: PABP1 MLLE–PAM2 interaction inhibitors, dose response, miRNA deadenylation inhibitor project, biochemical, fluorescence polarization, Cy5-PAM2 peptide, secondary (AID 602260). Particulars: read-out: IC50_Mean. It is filed as functional.
T5 sequence (P11940 whole entry): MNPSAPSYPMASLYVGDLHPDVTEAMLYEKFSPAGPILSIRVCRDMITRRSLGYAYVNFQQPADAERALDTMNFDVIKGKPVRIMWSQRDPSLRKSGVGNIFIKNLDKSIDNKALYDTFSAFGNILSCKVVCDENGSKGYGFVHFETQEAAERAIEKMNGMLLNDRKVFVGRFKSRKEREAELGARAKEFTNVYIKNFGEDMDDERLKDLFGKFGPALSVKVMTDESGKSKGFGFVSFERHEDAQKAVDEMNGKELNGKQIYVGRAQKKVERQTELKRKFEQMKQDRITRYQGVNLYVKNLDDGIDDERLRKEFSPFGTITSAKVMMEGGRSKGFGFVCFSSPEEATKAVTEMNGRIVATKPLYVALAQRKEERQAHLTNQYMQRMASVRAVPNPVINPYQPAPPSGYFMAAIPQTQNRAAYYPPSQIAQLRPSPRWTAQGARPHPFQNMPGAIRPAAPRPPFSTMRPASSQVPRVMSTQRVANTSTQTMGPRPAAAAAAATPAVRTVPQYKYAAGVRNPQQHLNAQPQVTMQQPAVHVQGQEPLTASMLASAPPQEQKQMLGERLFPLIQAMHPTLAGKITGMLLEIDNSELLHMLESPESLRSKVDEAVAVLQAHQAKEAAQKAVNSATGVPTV
The target of test [9] is T5, Polyadenylate-binding protein 1. The test is described as follows: PABP1 MLLE–PAM2 binding inhibitor potency, dose response, biochemical, fluorescence polarization, FITC-PAM2 peptide (AID 602259). It is filed as functional. As to conditions: read-out: IC50_Mean.
The target of test [10] is T6, Orexin receptor type 2 (Homo sapiens, UniProt O43614). The test is described as follows: Counterscreen assay for antagonists of the orexin 1 receptor (OX1R; HCRTR1): Fluorescence-based cell-based dose response assay for antagonists of the orexin 2 receptor (OX2R; HCRTR2), run by assay provider. It is filed as functional.
T6 sequence (O43614 whole entry): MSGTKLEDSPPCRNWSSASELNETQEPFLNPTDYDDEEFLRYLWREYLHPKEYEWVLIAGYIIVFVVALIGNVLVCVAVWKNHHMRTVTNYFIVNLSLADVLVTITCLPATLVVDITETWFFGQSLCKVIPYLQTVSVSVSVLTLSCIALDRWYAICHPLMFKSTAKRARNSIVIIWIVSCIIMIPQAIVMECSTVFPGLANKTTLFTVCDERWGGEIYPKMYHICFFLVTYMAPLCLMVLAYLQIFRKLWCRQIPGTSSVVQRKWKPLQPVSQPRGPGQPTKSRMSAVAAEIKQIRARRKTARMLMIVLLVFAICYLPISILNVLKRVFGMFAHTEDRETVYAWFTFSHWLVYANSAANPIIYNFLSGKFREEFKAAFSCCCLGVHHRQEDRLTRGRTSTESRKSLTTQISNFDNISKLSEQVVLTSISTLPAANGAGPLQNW
Test [11] concerns the target T6, Orexin receptor type 2. The test is described as follows: Counterscreen assay for antagonists of the orexin 1 receptor (OX1R; HCRTR1): Homogeneous Time Resolved Fluorescence (HTRF)-based cell-based dose response assay for antagonists of the orexin 2 receptor (OX2R; HCRTR2), run by assay provider. Format: functional.
Test [12] has as its target ALK tyrosine kinase receptor (Homo sapiens, UniProt Q9UM73). Format: functional.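 Also: ALK tested as one member of a kinase panel screen.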
Test [13] addresses Cell division cycle 7-related protein kinase (Homo sapiens, UniProt O00311). It is filed as functional.
Another test addresses SRSF protein kinase 1 (Homo sapiens, UniProt Q96SB4). It is filed as functional.
Test [14] has as its target Cyclin-dependent kinase 5 (Homo sapiens, UniProt Q00535). It is filed as functional.
For test [15], the target named is Interleukin-1 receptor-associated kinase 4 (Homo sapiens, UniProt Q9NWZ3). Format: functional.
Sequence of Interleukin-1 receptor-associated kinase 4 (Q9NWZ3 whole entry): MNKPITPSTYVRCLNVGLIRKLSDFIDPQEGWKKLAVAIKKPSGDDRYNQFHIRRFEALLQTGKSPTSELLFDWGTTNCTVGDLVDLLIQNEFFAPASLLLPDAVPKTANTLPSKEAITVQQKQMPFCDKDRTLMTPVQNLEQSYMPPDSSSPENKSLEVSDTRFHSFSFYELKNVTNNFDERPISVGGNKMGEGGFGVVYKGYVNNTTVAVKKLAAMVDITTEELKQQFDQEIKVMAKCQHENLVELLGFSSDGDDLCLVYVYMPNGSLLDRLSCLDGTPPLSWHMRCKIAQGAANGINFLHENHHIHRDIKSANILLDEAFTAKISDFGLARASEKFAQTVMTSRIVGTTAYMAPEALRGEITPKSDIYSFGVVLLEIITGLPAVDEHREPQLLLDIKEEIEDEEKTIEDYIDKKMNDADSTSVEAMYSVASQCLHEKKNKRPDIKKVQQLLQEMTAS
In test [16] the target is Cyclin-dependent kinase 1 (Homo sapiens, UniProt P06493). Format: functional.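 Also: Kinome-wide panel profiling, with the target listed as panel member CDC2.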
Test [17] concerns the target Serine/threonine-protein kinase MRCK alpha (Homo sapiens, UniProt Q5VT25). Format: functional.
The target of test [18] is Serine/threonine-protein kinase pim-1 (Homo sapiens, UniProt P11309). Format: functional.
Sequence of Serine/threonine-protein kinase pim-1 (P11309 whole entry): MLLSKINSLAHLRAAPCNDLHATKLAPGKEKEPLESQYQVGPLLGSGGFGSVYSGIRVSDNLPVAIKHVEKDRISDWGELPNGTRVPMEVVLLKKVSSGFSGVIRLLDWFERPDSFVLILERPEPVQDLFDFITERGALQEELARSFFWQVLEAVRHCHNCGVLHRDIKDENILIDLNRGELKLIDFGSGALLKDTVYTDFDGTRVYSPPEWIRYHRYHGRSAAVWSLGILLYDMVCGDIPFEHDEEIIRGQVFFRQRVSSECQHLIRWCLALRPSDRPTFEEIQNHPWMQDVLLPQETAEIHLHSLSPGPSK
Test [19] has as its target Homeodomain-interacting protein kinase 2 (Homo sapiens, UniProt Q9H2X6). Format: functional.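 Also: measured within a kinome-wide kinase profiling panel, HIPK2 being one panel member.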
Test [20] concerns the target T7, Glycogen synthase kinase-3 beta (Homo sapiens, UniProt P49841). Format: functional.
The target of test [21] is cAMP-dependent protein kinase catalytic subunit alpha (Homo sapiens, UniProt P17612). Format: functional.
The target in test [22] is Dual specificity protein kinase CLK4 (Homo sapiens, UniProt Q9HAZ1). It is filed as functional.
The target of test [23] is Mitogen-activated protein kinase kinase kinase kinase 4 (Homo sapiens, UniProt O95819). It is filed as functional.
The target of another test is Aurora kinase A (Homo sapiens, UniProt O14965). Format: functional.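 Also: value from the Navigating the Kinome kinase panel profiling, panel entry STK6.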
Sequence of Aurora kinase A (O14965 whole entry): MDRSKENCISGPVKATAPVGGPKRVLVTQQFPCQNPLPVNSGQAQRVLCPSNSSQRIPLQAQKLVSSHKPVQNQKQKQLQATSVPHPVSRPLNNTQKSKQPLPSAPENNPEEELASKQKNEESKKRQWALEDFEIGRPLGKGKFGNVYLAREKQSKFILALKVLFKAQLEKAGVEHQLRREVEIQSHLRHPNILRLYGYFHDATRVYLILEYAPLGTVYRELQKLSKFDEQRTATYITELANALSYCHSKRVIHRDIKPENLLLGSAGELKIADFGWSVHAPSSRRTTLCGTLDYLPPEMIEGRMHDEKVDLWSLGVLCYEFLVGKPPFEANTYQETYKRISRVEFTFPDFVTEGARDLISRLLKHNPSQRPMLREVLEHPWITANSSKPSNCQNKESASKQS
Test [24] addresses Vascular endothelial growth factor receptor 2 (Homo sapiens, UniProt P35968). Format: functional.
In a further test the target is Aurora kinase B (Homo sapiens, UniProt Q96GD4). Format: functional.
In test [25] the target is Melanin-concentrating hormone receptor 1 (Homo sapiens, UniProt Q99705). The test is described as follows: Late-stage fluorescence-based counterscreen for antagonists of the G-protein coupled receptor 7 (GPR7): cell-based dose response assay to identify antagonists of the melanin-concentrating hormone receptor 1 (MCHR1) Set 6. It is filed as functional.
Test [26] addresses T8, Neuropeptides B/W receptor type 1 (Homo sapiens, UniProt P48145).
T8 sequence (P48145 whole entry): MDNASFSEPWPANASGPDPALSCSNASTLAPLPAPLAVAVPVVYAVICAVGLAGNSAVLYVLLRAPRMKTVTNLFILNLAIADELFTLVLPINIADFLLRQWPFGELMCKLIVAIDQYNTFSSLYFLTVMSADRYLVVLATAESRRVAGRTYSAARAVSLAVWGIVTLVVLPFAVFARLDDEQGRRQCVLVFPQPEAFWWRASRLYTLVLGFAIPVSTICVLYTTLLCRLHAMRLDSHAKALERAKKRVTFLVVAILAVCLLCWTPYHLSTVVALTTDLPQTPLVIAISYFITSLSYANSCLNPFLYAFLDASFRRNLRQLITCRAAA
The test is described as follows: GPR7 antagonist potency, late-stage follow-up, cell-based, fluorescence, dose response, set 6 (AID 588583). It is filed as functional.

The target of test [27] is DNA dC->dU-editing enzyme APOBEC-3A (Homo sapiens, UniProt P31941). The test is described as follows: APOBEC3A DNA deaminase inhibitors, dose response, biochemical (AID 504722). It is filed as functional.
Sequence of DNA dC->dU-editing enzyme APOBEC-3A (P31941 whole entry): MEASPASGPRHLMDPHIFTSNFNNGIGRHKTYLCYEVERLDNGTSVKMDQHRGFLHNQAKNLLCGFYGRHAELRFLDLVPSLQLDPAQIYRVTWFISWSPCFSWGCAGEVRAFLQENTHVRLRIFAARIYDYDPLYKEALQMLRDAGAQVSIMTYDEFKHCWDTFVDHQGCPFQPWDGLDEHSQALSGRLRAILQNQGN
Test [28] deals with DNA dC->dU-editing enzyme APOBEC-3G (Homo sapiens, UniProt Q9HC16). The test is described as follows: Dose Response confirmation of small molecule APOBEC3G DNA Deaminase Inhibitors via a fluorescence-based single-stranded DNA deaminase assay. [Related pubchem assays (depositor defined):AID493012, AID493028]. It is filed as functional.
Test [29] deals with T7, Glycogen synthase kinase-3 beta. The test is described as follows: GSK3beta kinase inhibitors, dose response, biochemical, microfluidics, dry powder samples, set 2 (AID 623989). It is filed as functional.
Test [30] concerns the target Glycogen synthase kinase-3 alpha (Homo sapiens, UniProt P49840). The test is described as follows: human GSK3 alpha kinase inhibition, dose response, selectivity assay for GSK3beta inhibitor project, biochemical, microfluidics, dry powder samples, set 2 (AID 623978). It is filed as functional.
The target of test [31] is Cyclin-dependent kinase 5/CDK5 activator 1 (Homo sapiens, UniProt Q00535). The test is described as follows: CDK5-p25 kinase inhibition, dose response, selectivity assay for GSK3beta inhibitor project, biochemical, microfluidic mobility shift, dry powder, set 2 (AID 623979). Format: functional.
Sequence of Cyclin-dependent kinase 5/CDK5 activator 1 (Q00535 whole entry): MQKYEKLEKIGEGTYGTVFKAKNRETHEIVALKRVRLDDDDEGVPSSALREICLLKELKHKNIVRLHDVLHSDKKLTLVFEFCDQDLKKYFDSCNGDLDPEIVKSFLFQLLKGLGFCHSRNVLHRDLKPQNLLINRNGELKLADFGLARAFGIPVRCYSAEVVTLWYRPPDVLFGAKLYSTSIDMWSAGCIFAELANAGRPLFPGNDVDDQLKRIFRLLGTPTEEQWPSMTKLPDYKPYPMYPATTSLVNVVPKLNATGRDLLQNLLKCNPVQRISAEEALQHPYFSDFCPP
Sequence of Cyclin-dependent kinase 5/CDK5 activator 1 (Q15078 whole entry, further chain): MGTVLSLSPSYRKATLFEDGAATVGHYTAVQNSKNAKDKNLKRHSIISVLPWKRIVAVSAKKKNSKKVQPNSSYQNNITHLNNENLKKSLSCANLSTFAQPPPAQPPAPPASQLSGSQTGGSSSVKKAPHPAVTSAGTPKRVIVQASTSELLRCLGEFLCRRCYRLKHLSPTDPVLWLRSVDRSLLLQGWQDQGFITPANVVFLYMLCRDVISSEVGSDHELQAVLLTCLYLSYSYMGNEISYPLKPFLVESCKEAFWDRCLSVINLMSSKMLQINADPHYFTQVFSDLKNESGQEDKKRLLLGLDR

Activity calls are given as the source filed them.

T4 sequence (O43613 whole entry): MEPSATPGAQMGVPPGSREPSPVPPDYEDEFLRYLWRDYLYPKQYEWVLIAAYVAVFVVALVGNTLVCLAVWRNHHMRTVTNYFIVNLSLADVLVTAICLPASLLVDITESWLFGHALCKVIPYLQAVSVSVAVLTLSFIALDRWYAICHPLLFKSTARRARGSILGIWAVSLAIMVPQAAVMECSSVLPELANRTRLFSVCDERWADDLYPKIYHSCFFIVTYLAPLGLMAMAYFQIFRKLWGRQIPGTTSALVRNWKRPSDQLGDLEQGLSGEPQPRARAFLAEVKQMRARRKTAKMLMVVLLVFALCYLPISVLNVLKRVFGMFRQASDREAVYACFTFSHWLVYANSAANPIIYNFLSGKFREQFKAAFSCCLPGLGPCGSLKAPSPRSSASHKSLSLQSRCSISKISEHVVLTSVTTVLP
Sequence of Cell division cycle 7-related protein kinase (O00311 whole entry): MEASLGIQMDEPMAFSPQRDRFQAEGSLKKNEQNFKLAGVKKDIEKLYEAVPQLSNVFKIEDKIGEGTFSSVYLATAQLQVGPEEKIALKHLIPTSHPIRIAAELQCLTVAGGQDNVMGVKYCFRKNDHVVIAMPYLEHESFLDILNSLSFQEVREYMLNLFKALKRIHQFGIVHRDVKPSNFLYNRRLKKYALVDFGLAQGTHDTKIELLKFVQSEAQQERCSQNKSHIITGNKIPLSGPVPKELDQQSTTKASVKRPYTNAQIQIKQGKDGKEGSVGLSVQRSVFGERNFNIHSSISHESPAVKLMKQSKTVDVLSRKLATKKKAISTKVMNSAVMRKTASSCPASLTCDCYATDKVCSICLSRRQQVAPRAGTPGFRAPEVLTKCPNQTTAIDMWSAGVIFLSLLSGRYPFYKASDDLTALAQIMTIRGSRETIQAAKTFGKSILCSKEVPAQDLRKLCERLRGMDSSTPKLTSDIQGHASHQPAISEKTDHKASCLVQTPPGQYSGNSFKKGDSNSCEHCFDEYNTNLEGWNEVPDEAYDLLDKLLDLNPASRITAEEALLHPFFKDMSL
T7 sequence (P49841 whole entry): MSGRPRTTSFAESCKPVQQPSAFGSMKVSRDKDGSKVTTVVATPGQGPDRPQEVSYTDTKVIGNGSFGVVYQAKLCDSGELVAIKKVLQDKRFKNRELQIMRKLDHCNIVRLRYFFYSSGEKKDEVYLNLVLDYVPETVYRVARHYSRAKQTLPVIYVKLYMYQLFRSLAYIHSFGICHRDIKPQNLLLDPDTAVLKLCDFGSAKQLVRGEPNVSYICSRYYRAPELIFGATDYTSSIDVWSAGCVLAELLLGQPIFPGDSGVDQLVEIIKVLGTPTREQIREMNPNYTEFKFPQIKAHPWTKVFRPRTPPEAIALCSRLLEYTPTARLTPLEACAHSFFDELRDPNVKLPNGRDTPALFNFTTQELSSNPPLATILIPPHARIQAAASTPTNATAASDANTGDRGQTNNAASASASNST
Sequence of Cyclin-dependent kinase 5 (Q00535 whole entry): as the sequence (Q00535 whole entry) above

In the case of `Cc1cc(C(=O)N(C2CCCCC2)C2CCCCC2)no1`, the EC50 in test [1] and in [2] was > 50 µM (inactive) in each case.
On to `COc1ccc(/C=c2\sc3nc(-c4ccccc4OC)nn3c2=O)c(OC)c1`, for which the EC50 in test [3] was 21.5 µM (active); in [4], 31.4 µM (active). The IC50 is > 66.2 µM (inactive) with CHO-K1; > 49.8 µM (inactive) in [5]; 0.723 µM (active) in test [6]; 0.526 µM (active) in test [7]; > 66 µM (inactive) in [8]; 48.3 µM (inactive) in test [9]. In addition, the IC50 was 33.5 µM (inactive) on Orexin receptor type 2 [10] and > 50 µM (inactive) at Orexin receptor type 2 [11].
For `CS(=O)(=O)c1ccccc1Nc1nc(Nc2ccccc2)ncc1Cl`, the Ki in test [12] is 0.316 µM (active); in [13], > 3.98 µM (inactive).
Consider `CN(c1ccccc1-c1ccc2c(c1)Nc1ccccc1NC2=O)S(C)(=O)=O`, for which the Ki at SRSF protein kinase 1 is 5.01 µM (active); in test [14], 5.01 µM (active); in test [15] it was 2.51 µM (active); in test [16], 3.98 µM (active); in test [17], 6.31 µM (active).
`CNCCOc1cncc(-c2ccc3[nH]nc(C)c3c2)c1`: the inhibition constant Ki was 0.794 µM (active) in [18]; 0.0316 µM (active) in test [13]; 2 µM (active) in test [19]; > 10 µM (inactive) in [15]; 2.51 µM (active) in test [20]; 0.794 µM (active) in [21]. Besides, the figures for the Ki in test [22] and in test [23] were 0.01 µM (active) and 0.0794 µM (active), respectively.
Turning to `CC1(C)CC(C=Cc2ccc(Cl)cc2)=Cc2c1sc1ncnc(N)c21`, the Ki on Aurora kinase A is 0.1 µM (active); in test [24], 0.126 µM (active); on Aurora kinase B, 0.2 µM (active).
As for `N#CC(c1cc(F)ccc1F)c1c(Cl)cnn(Cc2cccc3ccccc23)c1=O` (configuration not stated), the IC50 in [25] and in [26] was 0.255 µM (active) in each case.
Regarding `Cc1ccc(-c2nnc(S)n2/N=C/c2ccncc2)cc1`, the IC50 in [27] is > 100 µM (inactive); in test [28], 2.48 µM (active). Further, the AC50 in test [29] was 1.48 µM (active); in [30] it was 7.71 µM (active); in [31] it was 19.3 µM (active).
